# Reference: patent publication US9187471B2, “Pyrido [4,3-b] indole and pyrido [3,4-b] indole derivatives and methods of use” (Medivation Technologies, Inc., priority 2010, dated 2015)
# What was measured:
# [1] = biological target: T1, human recombinant serotonin (5-Hydroxytryptamine) 5-HT2A receptor (Homo sapiens, UniProt P28223); assay: Serotonin 5-HT2A radioligand binding ([3H]Ketanserin); conditions: compound at 0.1 μM; read-out: Inhibition of ligand binding, Serotonin 5-HT2A (percent inhibition of specific binding)
# T1 construct: expressed in transfected cells; host or cells: CHO-K1
# Protocol: Compounds of the invention were incubated with 0.5 nM [^3H]Ketanserin for 60 min at 25° C. Non-specific binding was estimated in the presence of 1 μM Mianserin. Receptor proteins were filtered and washed, the filters were then counted to determine [^3H]Ketanserin specifically bound.
# [2] = biological target: T2, human recombinant serotonin (5-Hydroxytryptamine) 5-HT2C receptor (Homo sapiens, UniProt P28335); assay: Serotonin 5-HT2C radioligand binding ([3H]Mesulergine); conditions: compound at 0.1 μM; read-out: Inhibition of ligand binding, Serotonin 5-HT2C (percent inhibition of specific binding)
# T2 construct: expressed in transfected cells; host or cells: CHO-K1
# T2 sequence (P28335 33-458): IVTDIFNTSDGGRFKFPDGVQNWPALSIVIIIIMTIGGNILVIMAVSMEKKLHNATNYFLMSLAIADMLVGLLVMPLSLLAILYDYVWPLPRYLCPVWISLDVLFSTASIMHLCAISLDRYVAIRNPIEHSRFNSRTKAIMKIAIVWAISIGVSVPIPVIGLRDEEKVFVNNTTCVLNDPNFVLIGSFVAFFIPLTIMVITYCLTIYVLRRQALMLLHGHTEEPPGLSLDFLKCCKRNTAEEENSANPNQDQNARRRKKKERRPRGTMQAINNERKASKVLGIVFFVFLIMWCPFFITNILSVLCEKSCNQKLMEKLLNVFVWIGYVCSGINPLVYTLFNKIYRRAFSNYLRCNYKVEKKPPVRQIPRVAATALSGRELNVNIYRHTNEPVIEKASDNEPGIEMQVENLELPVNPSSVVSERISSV
# Protocol: Compounds of the invention were incubated with 1 nM [^3H]Mesulergine for 60 min at 25° C. Non-specific binding was estimated in the presence of 1 μM Mianserin. Receptor proteins were filtered and washed, the filters were then counted to determine [^3H]Mesulergine specifically bound.
# [3] = biological target: T3, human recombinant serotonin (5-Hydroxytryptamine) 5-HT5A receptor (Homo sapiens, UniProt P47898); assay: Serotonin 5-HT5A radioligand binding ([3H]LSD); conditions: compound at 0.1 μM; read-out: Inhibition of ligand binding, Serotonin 5-HT5A (percent inhibition of specific binding)
# T3 construct: expressed in transfected cells; host or cells: CHO-K1
# Protocol: Compounds of the invention were incubated with 1.7 nM [^3H]Lysergic acid diethylamide (LSD) for 60 min at 37° C. […] Receptor proteins were filtered and washed, the filters were counted to determine [^3H]LSD specifically bound.
# [4] = biological target: T4, human recombinant adrenergic α2A receptor (Homo sapiens, UniProt P08913); assay: Adrenergic α2A radioligand binding ([3H]MK-912); conditions: read-out: Adrenergic (0.1 μM) a2A, percent inhibition of specific binding; compound at 0.1 μM; 1 nM [3H]MK-912
# T4 construct: expressed in transfected cells; host or cells: insect Sf9 cells
# T4 sequence (P08913 1-465): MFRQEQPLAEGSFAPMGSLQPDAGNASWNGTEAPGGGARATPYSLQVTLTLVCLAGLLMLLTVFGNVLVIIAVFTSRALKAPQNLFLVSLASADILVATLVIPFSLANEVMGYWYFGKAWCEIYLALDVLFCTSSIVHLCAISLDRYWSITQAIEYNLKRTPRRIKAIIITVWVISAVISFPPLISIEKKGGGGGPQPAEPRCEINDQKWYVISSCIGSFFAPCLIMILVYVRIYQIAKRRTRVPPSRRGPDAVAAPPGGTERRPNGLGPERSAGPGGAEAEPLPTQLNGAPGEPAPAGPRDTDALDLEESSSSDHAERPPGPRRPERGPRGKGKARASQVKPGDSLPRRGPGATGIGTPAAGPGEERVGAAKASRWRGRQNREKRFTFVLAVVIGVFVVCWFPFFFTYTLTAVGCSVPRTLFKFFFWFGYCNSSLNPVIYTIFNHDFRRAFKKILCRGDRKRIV
# Protocol: To evaluate in radioligand binding assays the activity of compounds of the invention, human recombinant adrenergic α2A receptor expressed in insect Sf9 cells (Uhlen, S. et al, J. Pharmacol. Exp. Ther. 271:1558, 1994) in a modified Tris-HCl buffer (50 mM Tris-HCl, pH 7.4, 12.5 mM MgCl2, 2 mM EDTA) was used. Compounds of invention were incubated with 1 nM [^3H]MK-912 for 60 min at 25° C. MK-912 is (2S-trans)-1,3,4,5′,6,6′,7,12b-octahydro-1′,3′-dimethyl-spiro[2H-benzofuro[2,3-a]quinolizine-2,4′(1′H)-pyrimidin]-2′(3′H)-one hydrochloride Non-specific binding was estimated in the presence of 10 μM WB-4101 (2-(2,6-Dimethoxyphenoxyethyl)aminomethyl-1,4-benzodioxane hydrochloride). Receptor proteins were filtered and washed, the filters were then counted to determine [^3H]MK-912 specifically bound. […] Compounds of the invention were tested in this biochemical assay and percent inhibition of specific binding was determined.
# [5] = biological target: T5, Adrenergic α1B (Rattus norvegicus, UniProt P15823); assay: Adrenergic α1B radioligand binding ([3H]Prazosin); conditions: read-out: Adrenergic (0.1 μM) a1B, percent inhibition of specific binding; compound at 0.1 μM; 0.25 nM [3H]Prazosin; Wistar Rat liver
# T5 construct: rat adrenergic α1D receptor obtained from Wistar Rat liver; from tissue; host or cells: Wistar rat liver
# T5 sequence (P15823 1-515): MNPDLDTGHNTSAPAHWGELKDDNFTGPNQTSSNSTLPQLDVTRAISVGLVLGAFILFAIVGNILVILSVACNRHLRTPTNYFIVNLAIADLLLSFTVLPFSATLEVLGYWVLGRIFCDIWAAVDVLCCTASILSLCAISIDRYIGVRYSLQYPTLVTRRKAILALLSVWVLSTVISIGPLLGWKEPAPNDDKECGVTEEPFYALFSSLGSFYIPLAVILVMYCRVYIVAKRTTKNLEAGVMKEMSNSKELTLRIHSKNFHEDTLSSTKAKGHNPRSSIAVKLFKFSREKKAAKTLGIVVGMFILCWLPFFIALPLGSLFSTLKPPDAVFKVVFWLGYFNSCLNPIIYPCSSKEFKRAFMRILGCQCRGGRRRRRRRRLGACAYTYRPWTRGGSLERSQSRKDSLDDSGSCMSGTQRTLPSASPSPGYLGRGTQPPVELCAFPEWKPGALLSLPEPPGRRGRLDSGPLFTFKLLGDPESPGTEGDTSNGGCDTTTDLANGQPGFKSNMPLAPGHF
# Protocol: To evaluate in radioligand binding assays the activity of compounds of the invention, rat adrenergic α1D receptor obtained from Wistar Rat liver (Garcia-S'ainz, J. et al, Biochem. Biophys. Res. Commun. 186:760, 1992; Michel, A. et al, Br. J. Pharmacol. 98:883, 1989) in a modified Tris-HCl buffer (50 mM Tris-HCl buffer, pH 7.4, 0.5 mM EDTA) was used. Compounds of the invention were incubated with 0.25 nM [^3H]Prazosin for 60 min at 25° C. Non-specific binding was estimated in the presence of 10 μM phentolamine Receptor proteins were filtered and washed, the filters were then counted to determine [^3H]Prazosin specifically bound. […] Compounds of the invention were tested in this biochemical assay and percent inhibition of specific binding was determined.
# T1 sequence (P28223 whole entry): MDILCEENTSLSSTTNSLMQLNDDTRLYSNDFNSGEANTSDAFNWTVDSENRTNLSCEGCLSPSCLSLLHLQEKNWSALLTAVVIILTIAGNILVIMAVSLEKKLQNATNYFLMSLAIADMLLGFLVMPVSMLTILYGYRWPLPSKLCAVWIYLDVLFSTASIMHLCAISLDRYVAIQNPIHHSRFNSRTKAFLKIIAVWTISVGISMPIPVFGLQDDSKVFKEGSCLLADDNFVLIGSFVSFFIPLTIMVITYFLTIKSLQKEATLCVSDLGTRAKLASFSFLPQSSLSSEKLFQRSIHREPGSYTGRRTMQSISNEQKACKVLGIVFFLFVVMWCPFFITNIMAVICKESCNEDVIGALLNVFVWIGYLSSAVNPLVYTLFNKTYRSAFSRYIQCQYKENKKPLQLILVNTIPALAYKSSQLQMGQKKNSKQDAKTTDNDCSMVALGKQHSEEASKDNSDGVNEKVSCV
# T3 sequence (P47898 whole entry): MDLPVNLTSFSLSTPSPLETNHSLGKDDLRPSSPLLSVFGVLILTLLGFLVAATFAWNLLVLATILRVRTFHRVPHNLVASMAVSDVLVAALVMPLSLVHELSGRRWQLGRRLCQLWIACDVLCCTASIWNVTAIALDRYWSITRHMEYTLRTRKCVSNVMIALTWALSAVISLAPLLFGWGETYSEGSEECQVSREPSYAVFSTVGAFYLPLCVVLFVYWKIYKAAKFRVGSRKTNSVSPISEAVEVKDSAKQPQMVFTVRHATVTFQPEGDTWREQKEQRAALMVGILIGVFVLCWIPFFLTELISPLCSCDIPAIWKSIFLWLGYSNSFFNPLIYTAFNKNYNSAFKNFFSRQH
Structure (SMILES),inhibition at 0.1 µM [1] [%],inhibition at 0.1 µM [2] [%],inhibition at 0.1 µM [3] [%],inhibition at 0.1 µM [4] [%],inhibition at 0.1 µM [5] [%]
"Cc1ccc2c(c1)c1c(n2-c2ccccc2-c2cc3ccccc3s2)CCN(C)C1 [Compound No. 103, 5-(2-(benzo[b]thiophen-2-yl)phenyl)-2,8-dimethyl-2,3,4,5-tetrahydro-1H-pyrido[4,3-b]indole]",24,43,42,,
"Cc1ccc2c(c1)c1c(n2-c2ccccc2-c2cncc3ccccc23)CCN(C)C1 [Compound No. 87, 5-(2-(isoquinolin-4-yl)phenyl)-2,8-dimethyl-2,3,4,5-tetrahydro-1H-pyrido[4,3-b]indole]",70,66,24,,
"Cc1ccc2c(c1)c1c(n2-c2ccccc2-c2sccc2C)CCN(C)C1 [Compound No. 102, 2,8-dimethyl-5-(2-(3-methylthiophen-2-yl)phenyl)-2,3,4,5-tetrahydro-1H-pyrido[4,3-b]indole]",92,90,10,,
"Cc1ccc2c(c1)c1c(n2-c2ccccc2-c2cccn2C)CCN(C)C1 [Compound No. 100, 2,8-dimethyl-5-(2-(1-methyl-1H-pyrrol-2-yl)phenyl)-2,3,4,5-tetrahydro-1H-pyrido[4,3-b]indole]",74,72,11,95,
"Cc1ccc2c(c1)c1c(n2-c2ccccc2-c2cccc3[nH]ncc23)CCN(C)C1 [Compound No. 105, 5-(2-(1H-indazol-4-yl)phenyl)-2,8-dimethyl-2,3,4,5-tetrahydro-1H-pyrido[4,3-b]indole]",94,82,56,,
"Cc1ccc2c(c1)c1c(n2-c2ccccc2-c2cnn(C)c2)CCN(C)C1 [Compound No. 86, 2,8-dimethyl-5-(2-(1-methyl-1H-pyrazol-4-yl)phenyl)-2,3,4,5-tetrahydro-1H-pyrido[4,3-b]indole]",94,71,37,,
"Cc1ccc2c(c1)c1c(n2-c2cnc3ccccc3c2)CCN(C)C1 [Compound No. 88, 2,8-dimethyl-5-quinolin-3-yl-2,3,4,5-tetrahydro-1H-pyrido[4,3-b]indole]",93,90,22,,
"Cc1ccc2c(c1)c1c(n2-c2ccccc2-c2cn[nH]c2)CCN(C)C1 [Compound No. 104, 5-(2-(1H-pyrazol-4-yl)phenyl)-2,8-dimethyl-2,3,4,5-tetrahydro-1H-pyrido[4,3-b]indole]",57,77,20,14,9
